Test results as given in ChEMBL document CHEMBL3885861, “Open TG-GATES”.

Organism: Rattus norvegicus
Experiment: Open TG-GATES - Regimen: Daily Repeat
Format: toxicity, organism-based, Sprague-Dawley
Design: regimen Daily Repeat, gender Male, age 6 weeks
Settings: in vivo, po, 30 mg/kg, route gavage, dose level Middle; for APTT / Bas / Eos / Fbg / Hb / Ht / Lym / MCH / MCHC / MCV / Mono / Neu / PT / Plat / RBC / Ret / WBC: tissue Blood; for KIDNEY_L / KIDNEY_R / KIDNEY_TOTAL: tissue Kidney; for LIVER: tissue Liver; for A/G / ALP / ALT / AST / BUN / CRE / Ca / Cl / DBIL / GLC / IP / K / LDH / Na / PL / RALB / TBIL / TC / TG / TP / gamma-GTP: tissue Plasma

Compound `CCCc1cc(=O)[nH]c(=S)[nH]1` [PROPYLTHIOURACIL] has a TERMINAL_BW (72 h, time 3 day) of 205.6 g, an APTT (72 h, time 3 day) of 15.9 s and a Bas (72 h, time 3 day) of 0%. The Eos (72 h, time 3 day) was 0.4%, the Fbg (72 h, time 3 day) was 242.4 mg/dL and the Hb (72 h, time 3 day) was 13.6 g/dL. It also gave a Ht (72 h, time 3 day) of 40.9%, a Lym (72 h, time 3 day) of 73% and an MCH (72 h, time 3 day) of 21.9 pg. For the same compound, the MCHC (72 h, time 3 day) was 33.3%, the MCV (72 h, time 3 day) was 65.7 fL and the Mono (72 h, time 3 day) was 7.4%. The Neu (72 h, time 3 day) was 19.2%, the PT (72 h, time 3 day) was 12.2 s and the Plat (72 h, time 3 day) was 114 x10_4/uL. It also gave an RBC (72 h, time 3 day) of 623 x10_4/ul, a Ret (72 h, time 3 day) of 6.7% and a WBC (72 h, time 3 day) of 122.6 x10_2/uL. The KIDNEY_L (72 h, time 3 day) was 0.9 g, the KIDNEY_R (72 h, time 3 day) was 0.9 g and the KIDNEY_TOTAL (72 h, time 3 day) was 1.8 g. For the same compound, the LIVER (72 h, time 3 day) was 11.4 g, the A/G (72 h, time 3 day) was 1.8 and the ALP (72 h, time 3 day) was 907.2 IU/L. It also gave an ALT (72 h, time 3 day) of 36 IU/L, an AST (72 h, time 3 day) of 64 IU/L and a BUN (72 h, time 3 day) of 18.2 mg/dL. The CRE (72 h, time 3 day) was 0.5 mg/dL, the Ca (72 h, time 3 day) was 11.3 mg/dL and the Cl (72 h, time 3 day) was 106 meq/L. The DBIL (72 h, time 3 day) was 0.024 mg/dL, the GLC (72 h, time 3 day) was 192 mg/dL and the IP (72 h, time 3 day) was 7.6 mg/dL. For the same compound, the K (72 h, time 3 day) was 4.6 meq/L, the LDH (72 h, time 3 day) was 150.8 IU/L and the Na (72 h, time 3 day) was 138.4 meq/L. The PL (72 h, time 3 day) was 183 mg/dL, the RALB (72 h, time 3 day) was 3.9 g/dL and the TBIL (72 h, time 3 day) was 0.3 mg/dL. It also gave a TC (72 h, time 3 day) of 106.4 mg/dL, a TG (72 h, time 3 day) of 97 mg/dL and a TP (72 h, time 3 day) of 6 g/dL. The gamma-GTP (72 h, time 3 day) was 1.2 IU/L, the TERMINAL_BW ([…], time 7 day) was 228.6 g and the TERMINAL_BW ([…], time 14 day) was 248.6 g. It also gave a TERMINAL_BW ([…], time 28 day) of 242.7 g, an APTT ([…], time 7 day) of 16.2 s and a Bas ([…], time 7 day) of 0%. For the same compound, the Eos ([…], time 7 day) was 0.2%, the Fbg ([…], time 7 day) was 264 mg/dL and the Hb ([…], time 7 day) was 13.7 g/dL. For the same compound, the Ht ([…], time 7 day) was 40.3%, the Lym ([…], time 7 day) was 82.4% and the MCH ([…], time 7 day) was 21.5 pg. The MCHC ([…], time 7 day) was 34.1%, the MCV ([…], time 7 day) was 63.2 fL and the Mono ([…], time 7 day) was 8.4%. The Neu ([…], time 7 day) was 9%, the PT ([…], time 7 day) was 12.9 s and the Plat ([…], time 7 day) was 122.5 x10_4/uL. The RBC ([…], time 7 day) was 638 x10_4/ul, the Ret ([…], time 7 day) was 3.7% and the WBC ([…], time 7 day) was 123.8 x10_2/uL. It also gave an APTT ([…], time 14 day) of 16.6 s, a Bas ([…], time 14 day) of 0% and an Eos ([…], time 14 day) of 0.2%. The Fbg ([…], time 14 day) was 204.2 mg/dL, the Hb ([…], time 14 day) was 14.8 g/dL and the Ht ([…], time 14 day) was 43.8%. The Lym ([…], time 14 day) was 86.2%, the MCH ([…], time 14 day) was 21 pg and the MCHC ([…], time 14 day) was 33.7%. For the same compound, the MCV ([…], time 14 day) was 62.2 fL, the Mono ([…], time 14 day) was 3.6% and the Neu ([…], time 14 day) was 10%. For the same compound, the PT ([…], time 14 day) was 13.8 s, the Plat ([…], time 14 day) was 89 x10_4/uL and the RBC ([…], time 14 day) was 705.4 x10_4/ul. It also gave a Ret ([…], time 14 day) of 1.5%, a WBC ([…], time 14 day) of 134 x10_2/uL and an APTT ([…], time 28 day) of 15.1 s. It also gave a Bas ([…], time 28 day) of 0%, an Eos ([…], time 28 day) of 1% and a Fbg ([…], time 28 day) of 171 mg/dL. The Hb ([…], time 28 day) was 15.8 g/dL, the Ht ([…], time 28 day) was 46.9% and the Lym ([…], time 28 day) was 85.2%. For the same compound, the MCH ([…], time 28 day) was 19.5 pg, the MCHC ([…], time 28 day) was 33.7% and the MCV ([…], time 28 day) was 57.7 fL. It also gave a Mono ([…], time 28 day) of 3%, a Neu ([…], time 28 day) of 10.8% and a PT ([…], time 28 day) of 14.2 s. The Plat ([…], time 28 day) was 82.1 x10_4/uL, the RBC ([…], time 28 day) was 813.2 x10_4/ul and the Ret ([…], time 28 day) was 0.6%. The WBC ([…], time 28 day) was 63 x10_2/uL, the KIDNEY_L ([…], time 7 day) was 0.9 g and the KIDNEY_R ([…], time 7 day) was 0.9 g. It also gave a KIDNEY_TOTAL ([…], time 7 day) of 1.8 g, a KIDNEY_L ([…], time 14 day) of 0.9 g and a KIDNEY_R ([…], time 14 day) of 0.9 g. For the same compound, the KIDNEY_TOTAL ([…], time 14 day) was 1.9 g, the KIDNEY_L ([…], time 28 day) was 0.8 g and the KIDNEY_R ([…], time 28 day) was 0.8 g. For the same compound, the KIDNEY_TOTAL ([…], time 28 day) was 1.6 g, the LIVER ([…], time 7 day) was 12.4 g and the LIVER ([…], time 14 day) was 11.5 g. It also gave an LIVER ([…], time 28 day) of 9.6 g, an A/G ([…], time 7 day) of 1.7 and an ALP ([…], time 7 day) of 735.2 IU/L. It also gave an ALT ([…], time 7 day) of 31.6 IU/L, an AST ([…], time 7 day) of 54.8 IU/L and a BUN ([…], time 7 day) of 21.8 mg/dL. It also gave a CRE ([…], time 7 day) of 0.5 mg/dL, a Ca ([…], time 7 day) of 11.6 mg/dL and a Cl ([…], time 7 day) of 106 meq/L. The DBIL ([…], time 7 day) was 0.018 mg/dL, the GLC ([…], time 7 day) was 173.6 mg/dL and the IP ([…], time 7 day) was 6.8 mg/dL. It also gave a K ([…], time 7 day) of 4.6 meq/L, an LDH ([…], time 7 day) of 85.8 IU/L and a Na ([…], time 7 day) of 140.6 meq/L. For the same compound, the PL ([…], time 7 day) was 170.6 mg/dL, the RALB ([…], time 7 day) was 4.2 g/dL and the TBIL ([…], time 7 day) was 0.3 mg/dL. For the same compound, the TC ([…], time 7 day) was 111.2 mg/dL, the TG ([…], time 7 day) was 80.2 mg/dL and the TP ([…], time 7 day) was 6.7 g/dL. For the same compound, the gamma-GTP ([…], time 7 day) was 2.2 IU/L, the A/G ([…], time 14 day) was 1.7 and the ALP ([…], time 14 day) was 562.2 IU/L. For the same compound, the ALT ([…], time 14 day) was 27.6 IU/L, the AST ([…], time 14 day) was 51.2 IU/L and the BUN ([…], time 14 day) was 24.2 mg/dL. It also gave a CRE ([…], time 14 day) of 0.7 mg/dL, a Ca ([…], time 14 day) of 11.5 mg/dL and a Cl ([…], time 14 day) of 106.8 meq/L. It also gave a DBIL ([…], time 14 day) of 0.004 mg/dL, a GLC ([…], time 14 day) of 180.6 mg/dL and an IP ([…], time 14 day) of 6.4 mg/dL. For the same compound, the K ([…], time 14 day) was 4 meq/L, the LDH ([…], time 14 day) was 70.2 IU/L and the Na ([…], time 14 day) was 141.4 meq/L. The PL ([…], time 14 day) was 157.4 mg/dL, the RALB ([…], time 14 day) was 4.3 g/dL and the TBIL ([…], time 14 day) was 0.2 mg/dL. The TC ([…], time 14 day) was 103 mg/dL, the TG ([…], time 14 day) was 43.4 mg/dL and the TP ([…], time 14 day) was 6.9 g/dL. It also gave a gamma-GTP ([…], time 14 day) of 2.2 IU/L, an A/G ([…], time 28 day) of 2 and an ALP ([…], time 28 day) of 475.4 IU/L. The ALT ([…], time 28 day) was 34 IU/L, the AST ([…], time 28 day) was 58.4 IU/L and the BUN ([…], time 28 day) was 27.2 mg/dL. The CRE ([…], time 28 day) was 0.7 mg/dL, the Ca ([…], time 28 day) was 10.8 mg/dL and the Cl ([…], time 28 day) was 108.8 meq/L. For the same compound, the DBIL ([…], time 28 day) was 0.062 mg/dL, the GLC ([…], time 28 day) was 168.6 mg/dL and the IP ([…], time 28 day) was 5.4 mg/dL. It also gave a K ([…], time 28 day) of 4.3 meq/L, an LDH ([…], time 28 day) of 71.4 IU/L and a Na ([…], time 28 day) of 142.2 meq/L. The PL ([…], time 28 day) was 165.8 mg/dL, the RALB ([…], time 28 day) was 4.5 g/dL and the TBIL ([…], time 28 day) was 0.2 mg/dL. It also gave a TC ([…], time 28 day) of 105.4 mg/dL, a TG ([…], time 28 day) of 46.8 mg/dL and a TP ([…], time 28 day) of 6.8 g/dL. For the same compound, the gamma-GTP ([…], time 28 day) was 2.4 IU/L.
